Laboratory results from patent publication US8653087B2, “Pyrido [5, 4-D] pyrimidines as cell proliferation inhibitors” (Boehringer Ingelheim International GmbH, priority 2008, dated 2014).

Biological target: B-Raf (V600E)-kinase (Homo sapiens (Human), UniProt P15056, V600E)
Experiment: Kinase test B-RAF (V600E)
Format: biochemical
Details: B-RAF (V600E) kinase test, 250 μM ATP
Method in brief: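 B-Raf (V600E) (0.5 ng) preincubated with compound 24 h at RT (5% DMSO), then reacted 60 min at RT with 250 μM ATP and biotinylated MEK1 as substrate. Phospho-MEK (Ser217/221) captured on streptavidin and detected by europium time-resolved fluorescence; IC50 from dose-response curves.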

Chain of B-Raf (V600E)-kinase (P15056 whole entry V600E): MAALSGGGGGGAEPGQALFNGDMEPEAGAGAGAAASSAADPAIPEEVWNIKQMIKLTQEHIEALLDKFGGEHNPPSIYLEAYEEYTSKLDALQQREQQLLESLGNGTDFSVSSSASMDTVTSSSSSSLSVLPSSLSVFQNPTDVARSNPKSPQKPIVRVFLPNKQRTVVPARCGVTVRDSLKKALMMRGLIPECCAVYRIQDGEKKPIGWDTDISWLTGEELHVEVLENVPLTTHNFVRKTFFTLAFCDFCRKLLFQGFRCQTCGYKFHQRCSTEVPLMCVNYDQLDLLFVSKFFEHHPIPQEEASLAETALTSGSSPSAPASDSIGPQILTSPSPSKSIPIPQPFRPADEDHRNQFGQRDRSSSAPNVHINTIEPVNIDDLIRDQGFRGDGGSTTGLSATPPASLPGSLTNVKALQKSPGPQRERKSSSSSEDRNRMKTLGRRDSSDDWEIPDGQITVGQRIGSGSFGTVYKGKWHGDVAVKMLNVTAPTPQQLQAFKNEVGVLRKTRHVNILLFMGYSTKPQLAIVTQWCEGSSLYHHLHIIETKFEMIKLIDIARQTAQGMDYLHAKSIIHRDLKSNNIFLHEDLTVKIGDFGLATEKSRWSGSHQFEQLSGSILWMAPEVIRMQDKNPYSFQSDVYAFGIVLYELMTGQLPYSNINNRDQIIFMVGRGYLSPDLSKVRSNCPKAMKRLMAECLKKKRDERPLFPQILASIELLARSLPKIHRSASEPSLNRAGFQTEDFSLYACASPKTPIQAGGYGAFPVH

Compound | IC50 [nM]
COc1ccc(NC(=O)c2ccc(C(F)(F)F)c(Nc3ncnc4cnc(N5CCN(C)CC5)nc34)c2)cc1C(F)(F)F [III-47] | 95
COc1ccc(NC(=O)c2ccc(C(F)(F)F)c(Nc3ncnc4cnc(N5CCCCC5)nc34)c2)cc1C(F)(F)F [III-48] | > 1000
COc1ccc(NC(=O)c2ccc(C(F)(F)F)c(Nc3ncnc4cnc(NCCCN5CCOCC5)nc34)c2)cc1C(F)(F)F [III-49] | 587
COc1ccc(NC(=O)c2ccc(C(F)(F)F)c(Nc3ncnc4cnc(N5CCOCC5)nc34)c2)cc1C(F)(F)F [III-50] | 5
COc1ccc(NC(=O)c2ccc(C(F)(F)F)c(Nc3ncnc4cnc(N5CCCC5)nc34)c2)cc1C(F)(F)F [III-51] | 381
COc1ccc(NC(=O)c2ccc(C(F)(F)F)c(Nc3ncnc4cnc(NCCN(C)C)nc34)c2)cc1C(F)(F)F [III-52] | 2230
COc1ccc(NC(=O)c2ccc(C(F)(F)F)c(Nc3ncnc4cnc(NCCN5CCOCC5)nc34)c2)cc1C(F)(F)F [III-53] | 318
COc1ccc(NC(=O)c2ccc(C(F)(F)F)c(Nc3ncnc4cnc(N(C)C)nc34)c2)cc1C(F)(F)F [III-54] | 543
COCCN(C)c1ncc2ncnc(Nc3cc(C(=O)Nc4cc(C(C)(C)C)on4)ccc3C(F)(F)F)c2n1 [III-55] | > 150
CN(C)CCN(C)c1ncc2ncnc(Nc3cc(C(=O)Nc4cc(C(C)(C)C)on4)ccc3C(F)(F)F)c2n1 [III-56] | 1990
CC(C)(C)c1cc(NC(=O)c2ccc(C(F)(F)F)c(Nc3ncnc4cnc(N5CCCCCC5)nc34)c2)no1 [III-57] | 1830
CN1CCCN(c2ncc3ncnc(Nc4cc(C(=O)Nc5cc(C(C)(C)C)on5)ccc4C(F)(F)F)c3n2)CC1 [III-58] | 88
CN(CCN1CCCC1)c1ncc2ncnc(Nc3cc(C(=O)Nc4cc(C(C)(C)C)on4)ccc3C(F)(F)F)c2n1 [III-59] | 835
CN1CCN(c2ncc3ncnc(Nc4cc(C(=O)Nc5cc(C(C)(C)C)on5)ccc4C(F)(F)F)c3n2)CC1 [III-60] | 230
CC(C)(C)c1cc(NC(=O)c2ccc(C(F)(F)F)c(Nc3ncnc4cnc(N5CCCCC5)nc34)c2)no1 [III-61] | 2240
CC(C)(C)c1cc(NC(=O)c2ccc(C(F)(F)F)c(Nc3ncnc4cnc(NCCCN5CCOCC5)nc34)c2)no1 [III-62] | 546
CC(C)(C)c1cc(NC(=O)c2ccc(C(F)(F)F)c(Nc3ncnc4cnc(N5CCOCC5)nc34)c2)no1 [III-63] | 13
CC(C)(C)c1cc(NC(=O)c2ccc(C(F)(F)F)c(Nc3ncnc4cnc(N5CCCC5)nc34)c2)no1 [III-64] | > 1000
CN(C)CCNc1ncc2ncnc(Nc3cc(C(=O)Nc4cc(C(C)(C)C)on4)ccc3C(F)(F)F)c2n1 [III-65] | 4170
CC(C)(C)c1cc(NC(=O)c2ccc(C(F)(F)F)c(Nc3ncnc4cnc(NCCN5CCOCC5)nc34)c2)no1 [III-66] | 1140
COCCN(C)c1ncc2ncnc(Nc3cc(C(=O)Nc4cc(C(C)(C)C)on4)ccc3Cl)c2n1 [III-67] | 5
CC(C)(C)c1cc(NC(=O)c2ccc(Cl)c(Nc3ncnc4cnc(N5CCCCCC5)nc34)c2)no1 [III-68] | 8
CN(C)c1ncc2ncnc(Nc3cc(C(=O)Nc4cc(C(C)(C)C)on4)ccc3Cl)c2n1 [III-69] | 6
CN1CCCN(c2ncc3ncnc(Nc4cc(C(=O)Nc5cc(C(C)(C)C)on5)ccc4Cl)c3n2)CC1 [III-70] | 4

Compound | IC50 [nM]
CN(CCN1CCCC1)c1ncc2ncnc(Nc3cc(C(=O)Nc4cc(C(C)(C)C)on4)ccc3Cl)c2n1 [III-71] | 3
CN1CCN(c2ncc3ncnc(Nc4cc(C(=O)Nc5cc(C(C)(C)C)on5)ccc4Cl)c3n2)CC1 [III-72] | 4
CC(C)(C)c1cc(NC(=O)c2ccc(Cl)c(Nc3ncnc4cnc(N5CCCCC5)nc34)c2)no1 [III-73] | 4
CC(C)(C)c1cc(NC(=O)c2ccc(Cl)c(Nc3ncnc4cnc(NCCCN5CCOCC5)nc34)c2)no1 [III-74] | 1
CC(C)(C)c1cc(NC(=O)c2ccc(Cl)c(Nc3ncnc4cnc(N5CCOCC5)nc34)c2)no1 [III-75] | 1
CC(C)(C)c1cc(NC(=O)c2ccc(Cl)c(Nc3ncnc4cnc(N5CCCC5)nc34)c2)no1 [III-76] | 11
CN(C)CCNc1ncc2ncnc(Nc3cc(C(=O)Nc4cc(C(C)(C)C)on4)ccc3Cl)c2n1 [III-77] | 2
CC(C)(C)c1cc(NC(=O)c2ccc(Cl)c(Nc3ncnc4cnc(NCCN5CCOCC5)nc34)c2)no1 [III-78] | 2
CN(C)CCN(C)c1ncc2ncnc(Nc3cc(C(=O)Nc4cc(C(C)(C)C)on4)ccc3Cl)c2n1 [III-79] | 1
COCCN(C)c1ncc2ncnc(Nc3cc(C(=O)Nc4cc(C(C)(C)C)on4)ccc3OC)c2n1 [III-80] | 6
COc1ccc(C(=O)Nc2cc(C(C)(C)C)on2)cc1Nc1ncnc2cnc(N3CCOCC3)nc12 [III-81] | 2
COc1ccc(C(=O)Nc2cc(C(C)(C)C)on2)cc1Nc1ncnc2cnc(N3CCCC3)nc12 [III-82] | 20
COc1ccc(C(=O)Nc2cc(C(C)(C)C)on2)cc1Nc1ncnc2cnc(N(C)C)nc12 [III-83] | 8
COCCN(C)c1ncc2ncnc(Nc3cc(C(=O)Nc4cc(C(C)(C)C)on4)ccc3F)c2n1 [III-84] | 2
CC(C)(C)c1cc(NC(=O)c2ccc(F)c(Nc3ncnc4cnc(N5CCCCCC5)nc34)c2)no1 [III-85] | 7
CN1CCCN(c2ncc3ncnc(Nc4cc(C(=O)Nc5cc(C(C)(C)C)on5)ccc4F)c3n2)CC1 [III-86] | < 1
COc1ccc(C(=O)Nc2cc(C(C)(C)C)on2)cc1Nc1ncnc2cnc(N3CCCCCC3)nc12 [III-87] | 3
CC(C)(C)c1cc(NC(=O)c2ccc(F)c(Nc3ncnc4cnc(N5CCCCC5)nc34)c2)no1 [III-88] | 5
CC(C)(C)c1cc(NC(=O)c2ccc(F)c(Nc3ncnc4cnc(N5CCOCC5)nc34)c2)no1 [III-89] | 4
CC(C)(C)c1cc(NC(=O)c2ccc(F)c(Nc3ncnc4cnc(N5CCCC5)nc34)c2)no1 [III-90] | 5
CN(C)CCNc1ncc2ncnc(Nc3cc(C(=O)Nc4cc(C(C)(C)C)on4)ccc3F)c2n1 [III-91] | 1
CC(C)(C)c1cc(NC(=O)c2ccc(F)c(Nc3ncnc4cnc(NCCN5CCOCC5)nc34)c2)no1 [III-92] | 1
CN(C)c1ncc2ncnc(Nc3cc(C(=O)Nc4cc(C(C)(C)C)on4)ccc3F)c2n1 [III-93] | 1
CNc1ncc2ncnc(Nc3cc(C(=O)Nc4cc(C(C)(C)C)on4)ccc3F)c2n1 [III-94] | 6

Compound | IC50 [nM]
COc1ccc(C(=O)Nc2cc(C(C)(C)C)on2)cc1Nc1ncnc2cnc(N3CCN(C)CC3)nc12 [III-95] | 2
COc1ccc(C(=O)Nc2cc(C(C)(C)C)on2)cc1Nc1ncnc2cnc(N3CCCN(C)CC3)nc12 [III-96] | 2
COc1ccc(C(=O)Nc2cc(C(C)(C)C)on2)cc1Nc1ncnc2cnc(N(C)CCN3CCCC3)nc12 [III-97] | 4
COCCN(C)c1ncc2ncnc(Nc3cc(C(=O)Nc4cc(CN5CCCC5)cc(C(F)(F)F)c4)ccc3C)c2n1 [III-98] | 2
Cc1ccc(C(=O)Nc2cc(CN3CCCC3)cc(C(F)(F)F)c2)cc1Nc1ncnc2cnc(N3CCSCC3)nc12 [III-99] | 5
Cc1ccc(C(=O)Nc2cc(CN3CCCC3)cc(C(F)(F)F)c2)cc1Nc1ncnc2cnc(N3CCC3)nc12 [III-100] | 4
Cc1ccc(C(=O)Nc2cc(CN3CCCC3)cc(C(F)(F)F)c2)cc1Nc1ncnc2cnc(NCCF)nc12 [III-101] | 1
Cc1ccc(C(=O)Nc2cc(CN3CCCC3)cc(C(F)(F)F)c2)cc1Nc1ncnc2cnc(N3CCC(F)(F)CC3)nc12 [III-102] | 4
Cc1ccc(C(=O)Nc2cc(CN3CCCC3)cc(C(F)(F)F)c2)cc1Nc1ncnc2cnc(N3CCC(F)CC3)nc12 [III-103] | 2
Cc1ccc(C(=O)Nc2cc(CN3CCCC3)cc(C(F)(F)F)c2)cc1Nc1ncnc2cnc(NCC3CCOC3)nc12 (stereo not drawn) [III-104] | 1
Cc1ccc(C(=O)Nc2cc(CN3CCCC3)cc(C(F)(F)F)c2)cc1Nc1ncnc2cnc(NCc3ccccc3)nc12 [III-105] | 3
Cc1ccc(C(=O)Nc2cc(CN3CCCC3)cc(C(F)(F)F)c2)cc1Nc1ncnc2cnc(N3CCCCC3)nc12 [III-106] | 2
Cc1ccc(C(=O)Nc2cc(CN3CCCC3)cc(C(F)(F)F)c2)cc1Nc1ncnc2cnc(N3CCOCC3)nc12 [III-108] | < 1
Cc1ccc(C(=O)Nc2cc(CN3CCCC3)cc(C(F)(F)F)c2)cc1Nc1ncnc2cnc(N3CCCC3)nc12 [III-109] | 2
COCCNc1ncc2ncnc(Nc3cc(C(=O)Nc4cc(CN5CCCC5)cc(C(F)(F)F)c4)ccc3C)c2n1 [III-110] | 1
Cc1ccc(C(=O)Nc2cc(CN3CCCC3)cc(C(F)(F)F)c2)cc1Nc1ncnc2cnc(NC3CC3)nc12 [III-111] | < 1
Cc1ccc(C(=O)Nc2cc(CN3CCCC3)cc(C(F)(F)F)c2)cc1Nc1ncnc2cnc(NCC(C)C)nc12 [III-112] | 2
Cc1ccc(C(=O)Nc2cc(CN3CCCC3)cc(C(F)(F)F)c2)cc1Nc1ncnc2cnc(NCc3ccncc3)nc12 [III-114] | 2
Cc1ccc(C(=O)Nc2cc(CN3CCCC3)cc(C(F)(F)F)c2)cc1Nc1ncnc2cnc(N(C)C)nc12 [III-115] | 2
CNc1ncc2ncnc(Nc3cc(C(=O)Nc4cc(CN5CCCC5)cc(C(F)(F)F)c4)ccc3C)c2n1 [III-116] | < 1
CCN(CC)c1ncc2ncnc(Nc3cc(C(=O)Nc4cc(CN5CCCC5)cc(C(F)(F)F)c4)ccc3C)c2n1 [III-117] | 2
Cc1ccc(C(=O)Nc2cc(CN3CCCC3)cc(C(F)(F)F)c2)cc1Nc1ncnc2cnc(NCCc3ccccc3)nc12 [III-118] | 2
Cc1ccc(C(=O)Nc2ccc(N(C)CCN(C)C)c(C(F)(F)F)c2)cc1Nc1ncnc2cnc(NCc3cccnc3)nc12 [III-129] | 2
Cc1ccc(C(=O)Nc2ccc(N(C)CCN(C)C)c(C(F)(F)F)c2)cc1Nc1ncnc2cnc(N3CCOCC3)nc12 [III-130] | 3
